Experimental data from patent US7541398B2, “Method for transformation of conventional and commercially important polymers into durable and rechargeable antimicrobial polymeric materials” (priority 2005, dated 2009).

Assay: Durability of SHC powders: active chlorine content titrated after storage under ambient conditions
Type: physicochemical
Details: for active chlorine content: as synthesized, before storage; for Active chlorine content, 2 month / Active chlorine content, 4 month / Active chlorine content, 6 month: storage at about 25° C.±3, humidity about 60±10%
Protocol: Durability and Rechargeability of the SHCs. Durability: After storage under ambient conditions (e.g., temperature about 25° C.±3, humidity about 60±10%) for a certain period of time, the active chlorine contents in the SHC samples were titrated and the results were listed in Table 3.

| Compound | active chlorine content | Active chlorine content, 2 month [wt. %] | Active chlorine content, 4 month [wt. %] | Active chlorine content, 6 month [wt. %] |
| --- | --- | --- | --- | --- |
| CC1(C)CC(OC(=O)CCCCCCCCC(=O)OC2CC(C)(C)N(Cl)C(C)(C)C2)CC(C)(C)N1Cl [SHC-1, Bis(N-chloro-2,2,6,6-tetramethyl-4-piperidyl)sebacate] | 12.5% | 12.6 | 12.8 | 12.4 |
| N-chloro-[(2,2,6,6-tetramethyl-4-piperidyl) alkyl formate] [SHC-3] | about 7.86% | 8.10 | 7.70 | 7.30 |
